Common to all, as to type: biochemical
Test [1] deals with T1, SaEAS (SaEAS-FLAG, secreted SaEASΔSP-FLAG) (Streptomyces albidoflavus, UniProt A0AA37FDV0).
T1 construct: gene ScoT_12220; full-length gene with FLAG tag overexpressed (ermE* promoter) in S. albidoflavus SM254 delta-SaEAS; signal peptide cleaved on secretion; diluted spent medium used without purification
Description: anion-exchange chromatography, competition of PPi acceptors, Km from calculated acceptor-site occupancy. The following applies: 5 mM ATP, 5 mM free MgCl2, 0.1 mM MnCl2, pH 7.5, 37 °C. The text has this: anion-exchange chromatography, competition of PPi acceptors, Km from calculated acceptor-site occupancy on SaEAS (SaEAS-FLAG, secreted SaEASΔSP-FLAG) | we then calculated the acceptor-site occupancy and Km for the non-ATP substrate

Test [2] addresses T1, SaEAS (SaEAS-FLAG, secreted SaEASΔSP-FLAG). Description: anion-exchange chromatography, initial velocity of pppGpp synthesis. The following applies: ATP as PPi donor; 5 mM GTP acceptor, 0.03-1 mM ATP, 5 mM free MgCl2, 0.1 mM MnCl2, pH 7.5, 37 °C, PK/PEP.
For test [3] the target is unchanged. Description: anion-exchange chromatography, initial velocity of pppApp synthesis. To be noted: ATP as PPi acceptor (second site); 0.5-10 mM ATP as donor and acceptor, 5 mM free MgCl2, 0.1 mM MnCl2, pH 7.5, 37 °C. The text has this: anion-exchange chromatography, initial velocity of pppApp synthesis on SaEAS (SaEAS-FLAG, secreted SaEASΔSP-FLAG) | the Michaelis-Menten relationship provides the Km for ATP as a PPi acceptor

Another test deals with T2, VpEAS (Vibrio parahaemolyticus, UniProt Q87Q55).
T2 construct: gene VP1295; recombinant from pET29b in E. coli BL21(DE3), cleared lysate
T2 sequence (Q87Q55 entry or part of it): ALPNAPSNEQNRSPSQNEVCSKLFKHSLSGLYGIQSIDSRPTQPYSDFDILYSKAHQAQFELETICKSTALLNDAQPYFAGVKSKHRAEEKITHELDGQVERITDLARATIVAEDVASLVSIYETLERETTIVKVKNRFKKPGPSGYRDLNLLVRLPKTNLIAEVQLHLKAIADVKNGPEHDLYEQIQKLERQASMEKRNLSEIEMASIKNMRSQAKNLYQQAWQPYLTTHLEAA
As to the kind of experiment: anion-exchange chromatography of lysate reaction, pppGpp-2S formation. To be noted: 5 mM ATPγS, 1 mM GTPγS, 10 mM MgCl2, 0.1 mM MnCl2, pH 7.5, 37 °C, 5 min.

Test [4] concerns the target T1, SaEAS (SaEAS-FLAG, secreted SaEASΔSP-FLAG). As to the kind of experiment: anion-exchange chromatography, competition of PPi acceptors, Km derived from Vmax and Vmax/Km. To be noted: PPi acceptor; ATP donor, 5 mM free MgCl2, 0.1 mM MnCl2, pH 7.5, 37 °C; read-out: Km, acceptor(GTP). The text has this:
anion-exchange chromatography, competition of PPi acceptors, Km derived from Vmax and Vmax/Km on SaEAS (SaEAS-FLAG, secreted SaEASΔSP-FLAG) | We next used Vmax(pppGpp) to calculate Km, acceptor(GTP).

T1 sequence (A0AA37FDV0 entry or part of it, stated change not applied): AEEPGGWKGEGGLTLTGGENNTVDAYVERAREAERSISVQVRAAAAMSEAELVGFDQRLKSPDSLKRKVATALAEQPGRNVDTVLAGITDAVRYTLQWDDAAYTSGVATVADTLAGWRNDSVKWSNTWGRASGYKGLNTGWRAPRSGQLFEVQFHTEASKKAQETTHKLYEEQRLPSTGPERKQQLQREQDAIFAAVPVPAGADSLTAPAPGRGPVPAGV

Regarding `Nc1ncnc2c1ncn2[C@@H]1O[C@H](COP(=O)(O)OP(=O)(O)O)[C@@H](O)[C@H]1O` [ADP], the Km in test [1] (5 mM ADP) is 930 ± 40 µM.
As for `Nc1ncnc2c1ncn2[C@@H]1O[C@H](COP(=O)(O)O)[C@@H](O)[C@H]1O` [AMP], the Km in test [1] (5 mM AMP) is 2200 ± 200 µM.
Take `Nc1ncnc2c1ncn2[C@@H]1O[C@H](COP(=O)(O)OP(=O)(O)OP(=O)(O)O)[C@@H](O)[C@H]1O` [ATP]: the Michaelis constant (Km) in test [2] was 82 µM. Further, the “Km, aceptor(ATP)” value in test [3] was 1.4 mM.
As for `Nc1ncnc2c1ncn2[C@@H]1O[C@H](COP(=O)(O)OP(=O)(O)OP(O)(O)=S)[C@@H](O)[C@H]1O` [ATPγS], on VpEAS (PPi donor), the “anion-exchange chromatography of lysate reaction, pppGpp-2S formation” value was “Reactions were carried out using the non-hydrolyzable thiophosphates ATPγS and GTPγS”.
As for `Nc1nc2c(ncn2[C@@H]2O[C@H](COP(=O)(O)O)[C@@H](O)[C@H]2O)c(=O)[nH]1` [GMP], in test [1] (0.5 mM GMP), the Km is 64 ± 3 µM.
Turning to `Nc1nc2c(ncn2[C@@H]2O[C@H](COP(=O)(O)OP(=O)(O)OP(=O)(O)O)[C@@H](O)[C@H]2O)c(=O)[nH]1` [GTP], the Michaelis-Menten constant (Km) in test [4] amounted to 50 ± 4 µM.
As for `Nc1nc2c(ncn2[C@@H]2O[C@H](COP(=O)(O)OP(=O)(O)OP(O)(O)=S)[C@@H](O)[C@H]2O)c(=O)[nH]1` [GTPγS], the “anion-exchange chromatography of lysate reaction, pppGpp-2S formation” value on VpEAS (PPi acceptor) is listed as “VpEAS specifically uses GTPγS as an acceptor nucleotide to produce pppGpp-2S”.

Source of the values: article PMC12691689, “Bacteria export alarmone synthetases that produce (p)ppApp and (p)ppGpp” (mBio, 2025).
